Key:
BT-549 (Breast Cancer) = test: NCI five-dose SRB assay; format: cell-based; conditions: Homo sapiens, 48 h
OVCAR-4 (Ovarian Cancer) = test: NCI five-dose SRB assay; format: cell-based; conditions: Homo sapiens, 48 h
[1] = system: MCF-7 breast cancer cells; test: Soft agar drug sensitivity assay; format: cell-based, human; conditions: MCF-7, 1 and 5 µM, day 12
Procedure: It was proposed that testing of drugs in a 3-dimensional (3D) format, such as soft agar, is more similar to the in vivo cellular microenvironment and the results of such testing have a good correlation with in vivo conditions.
Five hundred MCF-7 breast cancer cells in 0.5% sterile agar (Bacto-Agar, Difco Laboratories) were layered on a preformed 0.8% sterile agar layer using 24 well plate (CytoONE, STARLAB International GmbH, Hamburg, Germany). The cells in agar were treated with the compound 4 at concentrations of 1 and 5 µM/mL. Doxorubicin was used as a positive control. The 0.5% agar layer included DMEM medium containing 10% FBS, cells, and tested compounds. The 0.8% agar layer included DMEM medium. Colonies with a size of >50 µm were counted under the microscope and photographed after 12 days.

DU-145 (Prostate Cancer) = test: NCI five-dose SRB assay; format: cell-based; conditions: Homo sapiens, 48 h
SK_MEL-5 (Melanoma) = test: NCI five-dose SRB assay; format: cell-based; conditions: Homo sapiens, SK-MEL-5, 48 h
KM12 (Colon Cancer) = test: NCI one-dose SRB assay; conditions: 10 μM, 48 h
Procedure: (§1) A primary anticancer assay was performed on a panel of approximately sixty human tumor cell lines derived from nine neoplastic diseases, in accordance with the protocol of the Drug Evaluation Branch, National Cancer Institute, Bethesda [31, 32, 33, 34, 35]. Tested compounds were added to the culture at a single concentration (10^−5 M) and the cultures were incubated for 48 h. End point determinations were made with a protein binding dye, Sulphorhodamine B (SRB). […] The percentage growth was evaluated spectrophotometrically versus controls not treated with test agents.

A498 (Renal Cancer) = test: NCI five-dose SRB assay; format: cell-based; conditions: Homo sapiens, 48 h
PC-3 (Prostate Cancer) = test: NCI five-dose SRB assay; format: cell-based; conditions: Homo sapiens, 48 h
HT29 (Colon Cancer) = test: NCI five-dose SRB assay; format: cell-based; conditions: Homo sapiens, HT-29, 48 h
UACC-257 (Melanoma) = test: NCI five-dose SRB assay; format: cell-based; conditions: Homo sapiens, 48 h
[2] = system: human embryonic kidney HEK293 cells; test: MTT assay of cell viability; conditions: HEK293, 72 h
[3] = system: CNS Cancer cell lines (MG_MID); test: NCI five-dose SRB assay; format: cell-based; conditions: Homo sapiens, 48 h
OVCAR-3 (Ovarian Cancer) = test: NCI five-dose SRB assay; format: cell-based; conditions: Homo sapiens, 48 h
KB3-1 (cervix) = test: MTT assay of cell viability; conditions: Homo sapiens, KB 3-1, 72 h, KB3-1; 72 h of incubation, M ± SD
UO-31 (Renal Cancer) = test: NCI five-dose SRB assay; format: cell-based; conditions: Homo sapiens, 48 h
[4] = system: Renal Cancer cell lines (MG_MID); test: NCI five-dose SRB assay; format: cell-based; conditions: Homo sapiens, 48 h
SF-539 (CNS Cancer) [5] = test: NCI five-dose SRB assay; format: cell-based; conditions: Homo sapiens, 48 h
OVCAR-5 (Ovarian Cancer) = test: NCI five-dose SRB assay; format: cell-based; conditions: Homo sapiens, 48 h
[6] = system: Non-Small Cell Lung Cancer cell lines (MG_MID); test: NCI five-dose SRB assay; format: cell-based; conditions: Homo sapiens, 48 h
[7] = system: EKVX (Non-Small Cell Lung Cancer); test: NCI five-dose SRB assay; format: cell-based; conditions: Homo sapiens, 48 h
HCT-116 (colon) = test: MTT assay of cell viability; conditions: Homo sapiens, HCT-116, 72 h, HCT-116; 72 h of incubation, M ± SD
[8] = system: NCI-H522 (Non-Small Cell Lung Cancer); test: NCI five-dose SRB assay; format: cell-based; conditions: Homo sapiens, 48 h
M14 (Melanoma) = test: NCI five-dose SRB assay; format: cell-based; conditions: Homo sapiens, 48 h
MOLT-4 (Leukemia) = test: NCI five-dose SRB assay; format: cell-based; conditions: Homo sapiens, 48 h
[9] = system: HOP-92 (Non-Small Cell Lung Cancer); test: NCI five-dose SRB assay; format: cell-based; conditions: Homo sapiens, 48 h
[10] = system: human epidermal keratinocytes of HaCaT line; test: MTT assay of cell viability; conditions: 72 h
RPMI-8226 (Leukemia) = test: NCI five-dose SRB assay; format: cell-based; conditions: Homo sapiens, 48 h
SF-539 (CNS Cancer) [11] = test: NCI one-dose SRB assay; conditions: 10 μM, 48 h
Procedure: as §1

[12] = system: panel of 60 cancer cell lines; test: NCI DTP one-dose primary anticancer assay (10^-5 M, SRB)
CAKI-1 (Renal Cancer) = test: NCI five-dose SRB assay; format: cell-based; conditions: Homo sapiens, 48 h
HCT-15 (Colon Cancer) = test: NCI five-dose SRB assay; format: cell-based; conditions: Homo sapiens, 48 h
KB3-1 cells = test: Fluorescent microscopy of morphological changes (Hoechst 33342/PI); format: cell-based, human; conditions: KB3-1, 5 µM, 48 h
Procedure: In addition, we observed multinucleated giant cells. […] The condensed chromatin, a characteristic feature of apoptosis, and dead cells were observed under the action of all studied compounds.
KB3-1 cells were seeded in the 12-well plates (CytoONE, STARLAB International GmbH, Hamburg, Germany) on glass microscopic slides and incubated overnight. Studied compounds were added to cells in the following concentrations: the compounds 3, 4 and cisplatin—5 µM/mL, doxorubicin—1 µM/mL. Cells were incubated for the next 48 h. Chromatin material of living and apoptotic cells was stained with the DNA-specific fluorescent dye Hoechst 33342 (Sigma-Aldrich, Burlington, MA, USA) and the DNA/RNA-specific fluorescent dye Propidium iodide (PI, Sigma, Burlington, MA, USA). Fluorochromes were added to cultured cells at final concentrations 0.2–0.5 μg/mL for Hoechst 33342 and 0.1 μg/mL—for PI. Images were made with a fluorescent Zeiss microscope (Carl Zeiss, Oberkochen, Germany). Magnification ×400. Microphotographs were additionally analyzed using ImagePro7N software.

[13] = system: Ovarian Cancer cell lines (MG_MID); test: NCI five-dose SRB assay; format: cell-based; conditions: Homo sapiens, 48 h
[14] = system: MCF-7 breast cancer cells; test: Annexin V-FITC/PI binding assay (flow cytometry); conditions: MCF-7, 5 µM, 24 h; control 4.4 ± 0.6%

SMILES: CCOC(=O)c1ccc(NC(=O)CSC(CC(=O)c2sc(Nc3ccccn3)nc2C)c2ccccc2F)cc1 (centres unmarked) [Compound 4, Ethyl 4-[[2-[1-(2-Fluorophenyl)-3-[4-methyl-2-(2-pyridylamino)thiazol-5-yl]-3-oxopropyl]sulfanylacetyl]amino]benzoate]
- GI50 (BT-549 (Breast Cancer)): 14.7 µM
- GI50 (OVCAR-4 (Ovarian Cancer)): 66.1 µM
- size and number of colonies in soft agar [1]: reduces the size and number of colonies
- GI50 (DU-145 (Prostate Cancer)): 67.2 µM
- GI50 (SK_MEL-5 (Melanoma)): 18.6 µM
- Growth % (KM12 (Colon Cancer)): −59.82%
- GI50 (A498 (Renal Cancer)): 69.2 µM
- GI50 (PC-3 (Prostate Cancer)): 23.8 µM
- GI50 (HT29 (Colon Cancer)): 58.3 µM
- GI50 (UACC-257 (Melanoma)): 38.4 µM
- IC50 [2]: > 50 µM
- GI50 [3]: 32.7 µM
- GI50 (OVCAR-3 (Ovarian Cancer)): 31.7 µM
- IC50 (KB3-1 (cervix)): 7.63 ± 0.38 µM
- GI50 (UO-31 (Renal Cancer)): 3.19 µM
- GI50 [4]: 33.4 µM
- GI50 (SF-539 (CNS Cancer) [5]): 32.5 µM
- GI50 (OVCAR-5 (Ovarian Cancer)): 74.4 µM
- GI50 [6]: 27.6 µM
- GI50 [7]: 19 µM
- IC50 (HCT-116 (colon)): 6.11 ± 0.24 µM
- GI50 [8]: 21.6 µM
- GI50 (M14 (Melanoma)): 19.4 µM
- GI50 (MOLT-4 (Leukemia)): 32.2 µM
- GI50 [9]: 12.5 µM
- IC50 [10]: > 50 µM
- GI50 (RPMI-8226 (Leukemia)): 8.29 µM
- Growth % (SF-539 (CNS Cancer) [11]): −27.26%
- Mean Growth, % ([12]; 10 μM, 48 h, 60 cell lines): −2.78%
- Range of Growth, % ([12]; 10 μM, 48 h, 60 cell lines): −76.78–41.12%
- Positive Cytostatic Effect ([12]; 10 μM, number of cell lines with percent growth from 0 to 50 / total number of cell lines): 35/60
- Positive Cytotoxic Effect ([12]; 10 μM, number of cell lines with percent growth of <0 / total number of cell lines): 25/60
- inhibition at 10 µM ([12]; Homo sapiens, 48 h, read-out: growth inhibition of all 60 tested cancer cell lines): > 50%
- GI50 (CAKI-1 (Renal Cancer)): 11.5 µM
- GI50 (HCT-15 (Colon Cancer)): 25.8 µM
- morphological changes (KB3-1 cells): changes in nuclear morphology, similar to a mitotic catastrophe
- GI50 [13]: 41.1 µM
- apoptotic cells (sum of early and late apoptotic cells) [14]: 42.7 ± 7.0%
